Laboratory results taken from PubChem BioAssay (NCI).
Several values for one entry are separate records, joined by “and”; a condition that tells them apart may be missing. Identical values can stand only once.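 All cell lines were grown in 96-well plates and treated with compound for 48 hours. Abbreviation: GI50, concentration required for 50% inhibition of growth. Definition used: TGI = concentration required for complete inhibition of growth.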

What was measured:
Assay in all cases: growth of human tumour cells (NCI), 48 h
OVCAR-4 ovarian = system: OVCAR-4 ovarian
HS 578T breast = system: HS 578T breast
MDA-MB-231 breast = system: MDA-MB-231 breast
T-47D breast = system: T-47D breast

SMILES | TGI (OVCAR-4 ovarian) | TGI (HS 578T breast) | TGI (MDA-MB-231 breast) | TGI (T-47D breast) | GI50 (OVCAR-4 ovarian) | GI50 (HS 578T breast) | GI50 (MDA-MB-231 breast) | GI50 (T-47D breast)
OC(c1ccc(Br)cc1)(c1cccs1)C1CC1 (configuration not stated) | 66.7 µM | 49.5 µM | 39.6 µM | 88.5 µM | – | – | – | –
NC(=O)C1(N2CCCCC2)CCN(CCCC(=O)c2ccc(F)cc2)CC1 | > 100 µM | > 100 µM | > 71.8 µM | > 100 µM | 8.72 µM | 2.37 µM | 3.56 µM | > 100 µM
OC(CN1CC1)C(O)CN1CC1 (configuration not stated) | > 50 µg/mL | > 50 µg/mL | > 50 µg/mL | > 50 µg/mL | > 50 µg/mL | > 50 µg/mL | > 50 µg/mL | > 50 µg/mL
O=C(c1ccc2ccccc2c1)c1c(C(F)(F)F)n([O-])c2ccc(Cl)cc2[n+]1=O | 2.72 µM | 3.72 µM | 3.21 µM | 1.78 µM | 1.39 µM | 1.79 µM | 1.59 µM | 0.453 µM
C=CCSc1nc2ccccc2c(=O)n1Cc1ccco1 | > 100 µM | > 100 µM | > 100 µM | > 100 µM | – | – | – | –
Cn1c2ccccc2c2c(=O)c3ccccc3[nH]c21 | – | > 100 µM | > 100 µM | – | – | > 100 µM | 87.1 µM | –
COCCOCCOCc1n(Cc2ccc3ccccc3n2)c2ccccc2[n+]1Cc1ccc2ccccc2c1 | 7.42 µM | 3.66 µM | 1.45 µM | 2.08 µM | 0.385 µM | 0.964 µM | 0.356 µM | 0.293 µM
O=C1c2cccnc2-c2nc(-c3ccncc3)cc3c2c1nc1ccccc13 | – | 23.1 µM | 50.1 µM | > 100 µM | – | 10.6 µM | 14.3 µM | 44.9 µM
Cn1c([N+](=O)[O-])cnc1/C=C1\Oc2cc(Cl)ccc2C1=O | > 21.5 µM | > 24.4 µM | > 28.5 µM | > 100 µM | 2.48 µM | 1.69 µM | 0.94 µM | 21.5 µM
O=C1C(SCCO)=C(SCCO)C(=O)c2ccccc21 | 0.671 µM | 4.99 µM | 4.15 µM | > 27.5 µM | – | – | – | –
O=S1(=O)NCCCN1CCNc1nccc(-c2c(-c3cccc(O)c3)nc3sccn23)n1 | > 96.1 µM | > 81.4 µM | > 100 µM | > 100 µM | 17.5 µM | 10.8 µM | 16.1 µM | 23.3 µM
C=C(CN1CCc2ccccc2C1)c1ccc(C(=O)Nc2ccccc2N)cc1 | 19.4 µM | 36.5 µM | 3.15 µM | > 39 µM | 1.92 µM | 3.7 µM | 0.973 µM | > 15.8 µM
C[C@H]1[C@H](C)CC[C@]2(C(=O)NCCNCCN)CC[C@]3(C)C(=CC[C@@H]4[C@@]5(C)CCC(=O)C(C)(C)[C@@H]5CC[C@]43C)[C@H]12 | 4 µM | 3.74 µM | 3.08 µM | – | 1.93 µM | 1.7 µM | 1.66 µM | –
CCCCCCCCCCCCCCCCCCNC(=O)[C@H]1CSC(c2cccs2)N1 (some centres not stated) | > 50 µM | 2.98 µM | 1.59 µM | 1.84 µM | 1.56 µM | 1.17 µM | 0.826 µM | 0.892 µM
O=C(/C=C/c1ccccc1)CC(c1ccccc1)N1CCOCC1 (configuration not stated) | 23.3 µM | 55 µM | 6.95 µM | 23.5 µM | 9.68 µM | 4.25 µM | 2.64 µM | 4.26 µM
CCC(=C(c1ccc(OCCCN(C)C)cc1)c1ccc(OCCCN(C)C)cc1)c1ccc(Cl)cc1 | 2.41 µM | 5.35 µM | 1.07 µM | 3.16 µM | 0.922 µM | 2.3 µM | 0.413 µM | 0.86 µM
C[C@H](Cn1ncnn1)Nc1ncc2cc(Oc3ccc(F)cc3F)c(=O)n(C)c2n1 | > 25 µM | > 25 µM | > 25 µM | > 25 µM | > 25 µM | > 25 µM | > 25 µM | > 25 µM
CN(C)Cc1c[nH]c2c(NCCN)c3c(c(NCCN)c12)C(=O)c1ccccc1C3=O | 29.6 µM | 10.9 µM | 2.86 µM | 14 µM | 8.07 µM | 3.38 µM | 0.949 µM | 1.82 µM
Cn1cc(-c2csc(-c3cn(C)c4ccccc34)n2)c2cnccc21 | 11.1 µM | 4.65 µM | 2.89 µM | – | 1.46 µM | 2.16 µM | 1.47 µM | –

SMILES | TGI (OVCAR-4 ovarian) | TGI (HS 578T breast) | TGI (MDA-MB-231 breast) | TGI (T-47D breast) | GI50 (OVCAR-4 ovarian) | GI50 (HS 578T breast) | GI50 (MDA-MB-231 breast) | GI50 (T-47D breast)
c1ccc2nc3c(cc4ccccn43)nc2c1 | – | > 100 µM | > 100 µM | > 100 µM | – | 61.7 µM | 29.8 µM | 88.1 µM
COc1ccc(CC(C)C(C)Cc2ccc(OC)c(OC)c2)cc1OC (configuration not stated) | > 1400 µM | > 1400 µM | > 1400 µM | > 1400 µM | 1140 µM | > 1400 µM | 126 µM | > 1400 µM
NC(=O)c1cccc(Nc2nccc(Nc3cccc(F)c3)n2)c1 | > 25 µM | > 25 µM | > 25 µM | 16.5 µM | 4.37 µM | 6.23 µM | 17.5 µM | 4.38 µM
COc1ccccc1/C=C/C(=O)/C=C/c1ccccc1O | 8.83 µM | 11.7 µM | 4.26 µM | 4.52 µM | 1.17 µM | 2.25 µM | 1.67 µM | 0.488 µM
Cc1cc(Nc2nc(SCc3ccc(C(=O)Nc4ccc(F)cc4N)cc3)nn3cccc23)n[nH]1 | 77.7 µM | > 100 µM | > 100 µM | 52.6 µM | 1.66 µM | 0.429 µM | 0.854 µM | 1.12 µM
COc1ccc(/C=C2/CCc3cc4ccc(OC)cc4[o+]c32)c(O)c1 | 20.6 µM | 34.5 µM | 18.8 µM | 22.1 µM | 5.45 µM | 4.28 µM | 3.75 µM | 3.04 µM
CCCCCCCCCCN=C(c1ccc(N(C)C)cc1)c1ccc(N(C)C)cc1 | > 83.6 µM | 39.1 µM | 23.9 µM | > 54 µM | 3.29 µM | 1.02 µM | 0.876 µM | 0.6 µM
O=C(O)CCC(NC(=S)S)C(=O)O.[Na+].[Zn+2] (configuration not stated) | > 50 µM | > 50 µM | > 50 µM | > 50 µM | > 50 µM | > 50 µM | > 50 µM | > 50 µM
COc1ccccc1-c1cc(=O)c2ccc(C)nc2[nH]1 | > 100 µM | > 100 µM | > 100 µM | > 100 µM | – | – | – | –
CCOC1Oc2ccccc2-c2oc(=O)c(Sc3ccc(C)cc3)cc21 (configuration not stated) | > 100 µM | > 100 µM | 67.7 µM | 56.4 µM | 25.1 µM | 34.5 µM | 16.9 µM | 1.63 µM
CC(=O)N[C@H](C(=O)N[C@@H](CCCNC(=N)N)C(=O)N[C@@H](CCCCN)C(=O)N[C@@H](CCCNC(=N)N)C(=O)N[C@]1(C)CCCCCC/C=C\CCC[C@@](C)(C(=O)N[C@@H](CCCNC(=N)N)C(=O)N[C@@H](CCC(=O)O)C(=O)N[C@@H](CC(C)C)C(=O)N[C@H](C(=O)N[C@@H](CCC(=O)O)C(N)=O)C(C)C)NC(=O)[C@H](CCC(N)=O)NC(=O)[C@H](CC(C)C)NC(=O)[C@H](CC(C)C)NC(=O)[C@H](CCCNC(=N)N)NC(=O)[C@H](CCCNC(=N)N)NC(=O)[C@H](CC(C)C)NC1=O)C(C)C | 8.02 µM | 4.14 µM | > 50 µM | 2.31 µM | 1.57 µM | 1.46 µM | 3.68 µM | 1.03 µM
OB1OCc2cc(/C=C/c3cccc(C(F)(F)F)c3)ccc21 | 17.3 µM | 66.6 µM | 11.1 µM | > 100 µM | 1.86 µM | 4.49 µM | 2.62 µM | 0.425 µM
Cc1ncc(C(=O)Nc2ccc(CN3CCN(C)CC3)c(C(F)(F)F)c2)cc1C#Cc1cnc(NC2CC2)c2ncccc12 | 3.27 µM | 4.44 µM | 1.12 µM | 13.5 µM | 1.49 µM | 1.19 µM | 0.582 µM | 5.68 µM
Cn1c(/C(C#N)=C/c2ccc3ccccc3c2)cc2ccccc21 | > 100 µM | > 100 µM | > 100 µM | > 100 µM | > 100 µM | 0.162 µM | 0.46 µM | –
CCSc1nc(N)c2cn[nH]c2n1 | 89 µM | 70.1 µM | 69.8 µM | 56.4 µM | 32.7 µM | 22.2 µM | 20.2 µM | 17.6 µM
CCC1=C[C@@H]2CN(C1)Cc1c([nH]c3ccccc13)[C@@](C(=O)OC)(c1cc3c(cc1OC)N(C)[C@H]1[C@@](O)(C(=O)OC)[C@H](OC(C)=O)[C@]4(CC)[C@@H]5C[C@@H]5CN5CC[C@]31[C@@H]54)C2 | 10.7 µM | – | – | 11.5 µM and 23.9 µM | < 0.005 µM | – | < 0.005 µM and 0.0335 µM | –
c1ccc(Cn2cnc3ccc(-c4nc(-c5ccc6c(c5)ncn6C5CCCCC5)cn5ccnc45)cc32)cc1 | > 100 µM | > 100 µM | – | – | 3.06 µM | 2.71 µM | – | –
C=C1CC2(OC1=O)C(=O)N(CCCN1C(=O)C3(CC(=C)C(=O)O3)c3ccccc31)c1ccccc12 (configuration not stated) | 3.14 µM | 51.5 µM | 3.43 µM | – | 1.52 µM | 3.43 µM | 1.65 µM | –
